Data published in patent EP2321300B1, “CHLOROPHYLL CATABOLITES” (Universität Innsbruck, priority 2008, dated 2010).

Tested on: Autoxidation von Linolensäure
Experiment: Antioxidant test: inhibition of hydroperoxide formation in radical-chain autoxidation of linoleic acid (after Stocker et al.), AIBN as radical starter, UV/Vis at 234 nm or HPLC
Format: biochemical
Conditions: for IC50: Autoxidation of Linolensäure in the presence of air, b23 room temperature (37°C, 0,15 M Linolsäure, 2 mM AIBN, 6 % (v/v) Methanol), read-out: Konzentration c0,5 (Rate der Peroxidbildung auf die Hälfte reduziert)
Excerpt: Stocker et al. verwendeten zur Quantifizierung der antioxidativen Wirkung des Hämabbauproduktes Bilirubin ein einfaches Testsystem. Die essentielle Fettsäure Linolsäure, eine zweifach ungesättigte Fettsäure, ist sehr empfindlich gegenüber einer Oxidation durch freie Radikale. Derartige Oxidationen können in Form von Kettenreaktionen z.B. in Zellmembranen großflächige Schäden herbeiführen. In vitro wurde dieser "oxidative Stress" durch den Einsatz einer Azoverbindung (Radikalstarter) simuliert. Derartige Azoverbindungen bilden ständig, abhängig von der Temperatur durch Abspaltung von Stickstoff (N2) Kohlenstoffradikale, die wiederum mit den ungesättigten Bindungen der Fettsäuren reagieren können. Es bilden sich Fettsäureradikale die ihrerseits wiederum mit Sauerstoff reagieren. Das führt zur Bildung von Fettsäurehydroperoxiden, die wegen ihrer besonderen Absorptionseigenschaften in UV-Bereich (234 nm) spektroskopisch nachweisbar sind. Abhängig von der Konzentration des Radikalbildners steigt also mit der Zeit die Anzahl der Fettsäurehydroperoxidmoleküle an. Setzt man einen antioxidativ wirksamen Stoff zu, können Radikale abgefangen werden, und die Bildung der Hydroperoxide wird verlangsamt.
Das Ergebnis dieser Untersuchungen zeigt die Figur 8, in der die zeitliche Abhängigkeit der Zunahme oxidierter Linolsäure bei unterschiedlichen Konzentrationen der Antioxidantien Bilirubin bzw. NCC-1 aufgetragen ist.
Die Aktivität des natürlichen und weniger polaren Cj-YCC-2 als Antioxidans wurde in Lösung mittels Standardexperimenten, die unter anderem auch in der WO 2007/030848 beschrieben sind, getestet unter Verwendung der Autoxidation von Linolensäure in der Anwesenheit von Luft und bei Raumtemperatur. Das gelbe Tetrapyrrol Cj-YCC-2 inhibierte die Erscheinung von Hydroperoxiden aus einer Radikal-Ketten-Autoxidation von Linolensäure in der Anwesenheit von Luft (siehe Fig. 8). […]

SMILES | IC50 [µM] | Erscheinung von Hydroperoxiden aus einer Radikal-Ketten-Autoxidation von Linolensäure (in the presence of air, Fig. 8)
C=CC1=C(C)C(Cc2[nH]c(C3c4[nH]c(Cc5[nH]c(C=O)c(C)c5CCO)c(C)c4C(=O)C3C(=O)OC)c(CCC(=O)O)c2C)NC1=O (stereo not drawn) [Cj-NCC-1, reference compound] | ~100 | 
C=CC1=C(C)/C(=C\c2[nH]c([C@@H]3c4[nH]c(Cc5[nH]c(C=O)c(C)c5CCO)c(C)c4C(=O)[C@H]3C(=O)OC)c(CCC(=O)O)c2C)NC1=O [Cj-YCC-1, (13^2S,15R,20E) - 3',3^2-Didehydro - 4,5,10,15 - (22,24H) - hexahydro - 13^2 - methoxycarbonyl - 4,5 - seco - 4,5 - dioxo - phytoporphyrinat] | ~10 | 
C=CC1=C(C)/C(=C/c2[nH]c([C@@H]3c4[nH]c(Cc5[nH]c(C=O)c(C)c5CCO)c(C)c4C(=O)[C@H]3C(=O)OC)c(CCC(=O)O)c2C)NC1=O [Cj-YCC-2, (13^2S,15R,20Z) - 3^1,3^2-Didehydro - 4,5,10,15 - (22,24H) - hexahydro - 13^2 - methoxycarbonyl - 4,5 - seco - 4,5 - dioxo - phytoporphyrinat] |  | inhibierte
